Results taken from publication PMC12930396, “Positive modulators of N-methyl-D-aspartate receptor: structure–activity relationship study on steroidal C-17 and C-20 oxime ethers” (RSC Advances, 2026).
Converted amounts (≈) assume the structure as drawn. “Also recorded” adds a separate entry of the source. Counter-ions that a name gives are not always drawn. Like-named read-outs stand apart in the source and are kept apart here.

Key:
[1] = test system: NMDA receptors; conditions: cited from earlier work; for Activity at NMDARs: C-17 ketone steroids
[2] = Thermodynamic solubility in PBS pH 7.4; assay type: physicochemical; conditions: 20 °C, pH 7.4, aqueous buffer, thermodynamic from solid
Method: The reference samples were prepared as follows: a weight corresponding to 2.5 µmol was dissolved in 250 µL of DMSO, resulting in a concentration of 10 mM stock solution. Each calibration level standard was prepared by diluting the stock solution in a mixture of PBS and acetonitrile (50 : 50 v/v). The samples for testing were prepared as follows: the volume of 1000 µL of PBS was added to the testing tube containing a weight of sample corresponding to 0.4 mM. The mixture was shaken at 1000 rpm at 20 °C for 24 h. The mixture was then filtered using a syringe polypropylene 0.45 µm filter. Samples and calibration standards are prepared using an automated system of a robotic arm (PAL-RTC, Switzerland). Then, the sample was analysed on chromatographic system (Vanquish UHPLC, Thermo Fisher Scientific, Germany) connected to the diode array detector and consequently to the charged aerosol detector (both Vanquish, Thermo Fisher Scientific, Germany), Thermo Scientific Accucore C8 (100 × 3 mm; 2.6 µm) column, using gradient elution with acetonitrile/methanol/5 mM formate buffer (pH = 3.00); flow: 1.0 cm^3 min^−1; column temperature: 40 °C; CAD temperature: 30 °C; sample volume: 5 mm^3.

[3] = Stability in rat plasma; assay type: in vitro ADME
Method: Compounds were prepared as 1.6 mg mL^−1 stock solutions in methanol. Then, 20 µL of stock solution was added to 1000 µL of rat plasma (BioIVT, Cat. No. RAT00PLLH-0102307), maintained at 37 °C. Aliquots (50 µL) withdrawn at 0, 8, and 24 h were analyzed by HPLC. An aliquot of plasma was extracted with methanol (450 µL) containing an internal standard, and the solution was vortexed (20 s) and centrifuged at 13 500 rpm for 10 min. The supernatant was transferred to an autosampler vial, and 10 µL was injected into an LC-MS system. The samples were analyzed using an Agilent 6230 TOF LC/MS. Samples were separated on a Waters ACQUITY UPLC CSH Phenyl-Hexyl column (100 × 2.1, 130 Å, 1.7 µm) at a flow rate of 0.3 mL min^−1. […]. The temperature, the flow rate of the nitrogen drying gas, the pressure of the nitrogen nebulizing gas, and the flow rate of the sheath gas were set at 325 °C, 10 L min^−1, 40 psi, […], and 11 L min^−1, respectively. Results are represented as a percentage of the compound remaining in spiked plasma.

[4] = target: T1, GluN1/GluN2B receptors (Rattus norvegicus, UniProt P35439+Q00960); experiment: Patch-clamp: modulation of glutamate-induced currents of recombinant GluN1/GluN2B receptors expressed in HEK293 cells; assay type: cell-based; conditions: for h ± SEM (apparent Hill coefficient): concentration-response fit; for h ± SEM (apparent Hill coefficient) / EC50 / Emax: mean ± SEM; for EC50: half-maximal potentiation of currents evoked by 1 µM glutamate; for EC50 / Emax: HEK293; for Emax: maximal potentiation of currents evoked by 1 µM glutamate and 30 µM glycine
T1 construct: expressed in transfected cells; host or cells: HEK293 cells (ATCC No. CRL-1573)
T1 sequence (Q00960 27-1482, other chains not shown): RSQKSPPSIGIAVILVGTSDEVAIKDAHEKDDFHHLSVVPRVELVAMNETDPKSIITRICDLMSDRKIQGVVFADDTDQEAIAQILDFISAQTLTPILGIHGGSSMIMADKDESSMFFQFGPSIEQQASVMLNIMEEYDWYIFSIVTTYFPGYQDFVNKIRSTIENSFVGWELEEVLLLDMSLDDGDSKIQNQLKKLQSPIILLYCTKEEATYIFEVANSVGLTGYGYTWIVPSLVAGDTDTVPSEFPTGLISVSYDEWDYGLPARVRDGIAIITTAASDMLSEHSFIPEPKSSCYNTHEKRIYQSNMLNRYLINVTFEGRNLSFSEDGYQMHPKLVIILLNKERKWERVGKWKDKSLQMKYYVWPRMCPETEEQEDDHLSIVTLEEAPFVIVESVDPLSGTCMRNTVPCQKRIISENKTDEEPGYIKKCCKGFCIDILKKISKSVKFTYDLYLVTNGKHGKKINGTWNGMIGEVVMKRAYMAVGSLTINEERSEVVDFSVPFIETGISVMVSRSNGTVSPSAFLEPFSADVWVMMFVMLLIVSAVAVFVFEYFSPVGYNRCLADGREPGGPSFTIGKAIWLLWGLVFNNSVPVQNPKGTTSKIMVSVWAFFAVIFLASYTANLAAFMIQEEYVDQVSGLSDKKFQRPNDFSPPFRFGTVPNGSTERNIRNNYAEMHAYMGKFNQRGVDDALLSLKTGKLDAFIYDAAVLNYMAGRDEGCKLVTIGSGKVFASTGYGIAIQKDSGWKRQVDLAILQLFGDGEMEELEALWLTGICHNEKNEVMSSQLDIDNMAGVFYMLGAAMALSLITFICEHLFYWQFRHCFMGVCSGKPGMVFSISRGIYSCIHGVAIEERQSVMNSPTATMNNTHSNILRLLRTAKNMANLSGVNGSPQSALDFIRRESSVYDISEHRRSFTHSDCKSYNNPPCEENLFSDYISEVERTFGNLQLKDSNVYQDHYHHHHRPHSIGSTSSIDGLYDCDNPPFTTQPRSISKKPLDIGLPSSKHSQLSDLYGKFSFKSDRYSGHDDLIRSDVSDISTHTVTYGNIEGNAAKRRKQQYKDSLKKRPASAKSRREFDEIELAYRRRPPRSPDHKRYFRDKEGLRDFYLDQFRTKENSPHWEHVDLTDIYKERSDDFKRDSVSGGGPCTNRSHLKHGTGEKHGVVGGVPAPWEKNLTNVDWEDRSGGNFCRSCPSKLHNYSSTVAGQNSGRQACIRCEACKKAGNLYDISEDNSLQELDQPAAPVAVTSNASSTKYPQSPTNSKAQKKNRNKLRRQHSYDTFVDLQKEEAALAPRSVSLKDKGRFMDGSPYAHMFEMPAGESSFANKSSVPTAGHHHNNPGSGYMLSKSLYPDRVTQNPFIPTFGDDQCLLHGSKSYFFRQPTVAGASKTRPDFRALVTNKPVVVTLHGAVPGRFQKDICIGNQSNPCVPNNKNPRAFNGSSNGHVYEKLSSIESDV
Method: To investigate the effect of compounds 11–23 on the activity of NMDARs, electrophysiological measurements were performed on HEK293 cells that were co-transfected with cDNAs containing genes encoding for the rat GluN1-1a and GluN2B subunits. The degree of modulation (E; potentiation/inhibition) for the newly synthesized compounds was determined using the following formula: [drawing 1] where Ie is the value of the current amplitude during glutamate and compound coapplication, and Ia is the current amplitude value for glutamate application. […] The results are presented as mean ± standard error of the mean (SEM), with n equal to the number of independent measurements. One-way analysis of variance (ANOVA) was used for multiple comparisons (unless otherwise stated, a value of P ≤ 0.05 was used for the determination of significance).
We have evaluated the relationship between oxime derivatives 11–23 and their modulatory effect on recombinant GluN1/GluN2B receptors. Due to the […] effect of neurosteroid-based PAMs at NMDARs[20,44]
HEK293 cells (American Type Culture Collection, ATCC No. CRL-1573, Rockville, MD, USA) were cultured in Opti-MEM I (Invitrogen, Carlsbad, CA, USA) supplemented with 5% fetal bovine serum (FBS; PAN Biotech, Aidenbach, Germany) at 37 °C in 5% CO2. 24 h before transfection, HEK293 cells were plated in 24-well plates at a density of 2 × 10^5 cells per well. The next day, the cells were transfected with cDNA encoding rat GluN1-1a (GluN1; GenBank accession number U08261)[56] and GluN2B (GenBank accession number M91562)[57] subunits (in the pCI-neo expression vector), along with green fluorescent protein (GFP; in the pQBI 25 vector, Takara, Tokyo, Japan). Briefly, equal amounts (200 ng) of cDNAs encoding GluN1-1a, GluN2B, and GFP were mixed with 0.6 µl of Matra-A reagent (IBA, Gottingen, Germany) in 50 µL of Opti-MEM I and added to confluent HEK293 cells cultured in 24-well plates. After trypsinization, the cells were resuspended in Opti-MEM I containing 1% FBS, supplemented with 20 mM MgCl2, 1 mM D,L-2-amino-5-phosphonovaleric acid, 3 mM kynurenic acid, and 1 µM ketamine, and plated on 30 mm glass coverslips coated with collagen and poly-L-lysine. Transfected cells were identified by GFP epifluorescence. Electrophysiology experiments were performed 24–48 h after transfection.
Whole-cell current recordings, voltage-clamped at a holding potential of −60 mV, were performed at room temperature using a patch-clamp amplifier (Axopatch 200B; Molecular Devices, Sunnyvale, CA, USA) after capacitance and series resistance (<10 MΩ) compensation (80–90%). NMDAR current responses were low-pass filtered at 2 kHz, digitally sampled at 5 kHz, and analysed using pClamp software (version 10.6; Molecular Devices). Patch pipettes (3–5 MΩ), pulled from borosilicate glass, were filled with an intracellular solution (ICS) containing (in mM): 15 CsCl, 10 BAPTA, 3 MgCl2, 1 CaCl2, 120 gluconic acid, 10 HEPES, and 2 ATP-Mg salt (pH adjusted to 7.2 with CsOH). The extracellular solution (ECS) contained (in mM): 160 NaCl, 2.5 KCl, 0.2 EDTA, 10 glucose, 10 HEPES, and 0.7 CaCl2 (pH adjusted to 7.3 with NaOH). NMDAR responses were induced by 1 µM glutamate and 30 µM glycine. 1% DMSO was present in all control and testing solutions. Solution applications were performed using a microprocessor-controlled multibarrel fast-perfusion system with a solution exchange rate around the cells of ∼10 ms.[58]

[5] = in vitro; conditions: for half-life at 10 µM: rat, microsomes
Method: The reactions were terminated by the addition of four volumes of ice-cold methanol, mixed vigorously, and left at −20 °C for 1h. After that, the samples were centrifuged and the supernatants were analysed by means of ECHO-MS® System (Sciex, Framingham, MA, USA). Zero time points were prepared by adding ice-cold methanol to the mixture of the compound with cofactors before the addition of microsomes. […] Intrinsic clearance (CLint) was calculated using the following formula: [drawing 4] where V is the incubation volume per milligram of microsomal protein (µL mg^−1) and t1/2 is the microsomal half-life.

[6] = in vitro; conditions: for PAMPA permeability Retention (mass retention): 5 h, 100 µM; for PAMPA permeability Retention (mass retention) / Papp at 5 h, 100 µM: pH 7.4; for Papp at 5 h, 100 µM: PAMPA
Method: Permeability was quantified using permeability coefficients (Pe) and mass retention, the latter representing the proportion of compound retained in the membrane.
Permeation experiments were conducted in polystyrene 96-well filter plates with PVDF membrane pre-coated with structured layers of phospholipids (Corning Gentest™) according to the manufacturer's instructions. Briefly, the plate was warmed to room temperature, and meanwhile, the solutions of the compounds were diluted from 10 mM DMSO stocks to TRIS–HCl buffer pH 7.4 to reach a 100 µM final concentration. The DMSO concentration in the samples was 1%. Then, 300 µL of these solutions were transferred into the donor (receiver) plate wells, and 200 µL of the (TRIS) buffer was added to the acceptor (filter) plate wells. The filter plate and receiver plate were assembled and incubated for 5 h on an orbital shaker (300 rpm). After this, the concentration of the tested substances in both the donor and acceptor compartments was determined with use of LC/MS. Liquid chromatography was performed using an ExionLC AD pump and autosampler from Sciex (Framingham, MA, USA). […] The mobile phase flow rate was 300 µL min^−1. The column Synergi Fusion-RP from Phenomenex (Torrance, CA, USA) was used and was kept at 40 °C during the analysis.

[7] = PBS, PBS pH 7.4, 20 °C, 24 h, read-out: Solubility PBS, pH 7.4 (thermodynamic)
[8] = Solubility PBS, pH 7.4 (thermodynamic)

Row | SMILES | half-life at 10 µM ([5]; pH 7.4) [min] | PAMPA permeability Retention (mass retention) [6] [%] | Papp at 5 h, 100 µM [6] [×10⁻⁶ cm/s] | Stability in rat plasma (% remaining) 8 h ([3]; rat, plasma) [% remaining] | Stability in rat plasma (% remaining) 24 h ([3]; rat, plasma) [% remaining] | h ± SEM (apparent Hill coefficient) [4] | EC50 [4] [µM] | Emax [4] [%] | solubility thermodynamic at 24 h [2, 8] [µM] | other results
1 | C[C@]12CC[C@H](OS(=O)(=O)O)CC1=CCC1C2CC[C@]2(C)C(=O)CCC12 (some centres unmarked) [dehydroepiandrosterone sulfate] |  |  |  |  |  |  |  |  |  | Activity at NMDARs [1]: inactive
2 | CC(=O)[C@H]1CC[C@H]2[C@@H]3CC[C@@H]4C[C@H](OS(=O)(=O)O)CC[C@]4(C)[C@H]3CC[C@]12C [PAS, 20-oxo-5β-pregnan-3α-yl sulfate] |  |  |  |  |  |  |  |  |  | IC50 ([1]; in Fig. 1, read-out: IC50, negative allosteric modulation of NMDA receptors): 24.6 µM
3 | CC(=O)[C@H]1CC[C@H]2[C@@H]3CC=C4C[C@@H](OC(=O)CCC(=O)O)CC[C@]4(C)[C@H]3CC[C@]12C [20-Oxo-PE-hSuc, 20-Oxo-pregn-5-en-3β-yl hemisuccinate, reference compound] |  |  |  |  |  |  |  |  |  | solubility thermodynamic at 24 h [2, 7]: 277 ± 1 µM; Stability in rat plasma (% remaining) 8 h ([3]; rat plasma, 37 °C): 69 ± 1 % remaining; Stability in rat plasma (% remaining) 24 h ([3]; rat plasma, 37 °C): 50 ± 2 % remaining
4 | C[C@]12CC[C@H](OC(=O)CCCC(=O)O)CC1=CCC1C2CC[C@]2(C)/C(=N/O)CCC12 (stereo partly drawn) [Compound 14, 17-Oxo-androst-5-en-3β-yl 3-hemiglutarate 17-oxime] | > 60 | 17 | 26.3 | 61.1 ± 1.6 | 56.3 ± 2.5 |  |  |  |  | Modulatory profile at NMDARs ([4]; GluN1/GluN2B in HEK293): not identified as PAMs; also recorded: lost its PAM-activity; PAMPA permeability [6]: moderate permeability
5 | CCO/N=C(\C)[C@H]1CCC2C3CC=C4C[C@@H](OC(=O)CCCCC(=O)O)CC[C@]4(C)C3CC[C@@]21C (stereo partly drawn) [Compound 23, 20-Oxo-pregn-5-en-3β-yl hemiadipate O-ethyloxime] | > 60 | 100 |  |  |  | 1.7 ± 0.1 | 7.5 ± 1.1 | 451 ± 79 | 21 ± 1 (≈ 10.2 µg/mL) | Metabolic stability in rat liver microsomes ([5]; 1 h, 10 µM, pH 7.4): no detectable metabolism after 60 min
6 | CC(=O)[C@H]1CC[C@H]2[C@@H]3CC=C4C[C@@H](OC(=O)CCCCC(=O)O)CC[C@]4(C)[C@H]3CC[C@]12C [20-Oxo-PE-hAdi, 20-Oxo-pregn-5-en-3β-yl hemiadipate, reference compound] |  |  |  | 11 ± 0 | 2 ± 0 |  |  |  | 20 ± 2 (≈ 8.89 µg/mL) | 
7 | C/C(=N\O)[C@H]1CCC2C3CC=C4C[C@@H](OC(=O)CCCC(=O)O)CC[C@]4(C)C3CC[C@@]21C (stereo partly drawn) [Compound 11, 20-Oxo-pregn-5-en-3β-yl 3-hemiglutarate 20-oxime] | 58.6 ± 18.7 | 87 | 155 | 69.9 ± 6.0 | 58.1 ± 8.1 | 1.5 ± 0.1 | 7.9 ± 2.1 | 270 ± 35 |  | Stability in rat microsomes Clint [5]: 23.6 µlmin^−1mg; PAMPA permeability [6]: comparable to or greater than that of verapamil
8 | CCO/N=C(\C)[C@H]1CCC2C3CC=C4C[C@@H](OC(=O)CCC(=O)O)CC[C@]4(C)C3CC[C@@]21C (stereo partly drawn) [Compound 22, 20-Oxo-pregn-5-en-3β-yl hemisuccinate O-ethyloxime] | 52.6 ± 3.7 | 96 | 1.58 |  |  | 1.3 ± 0.1 | 7 ± 1.1 | 340 ± 22 | 22 ± 1 | Stability in rat microsomes Clint [5]: 26.3 µlmin^−1mg
9 | CC(=O)[C@H]1CC[C@H]2[C@@H]3CC=C4C[C@@H](OC(=O)CCCC(=O)O)CC[C@]4(C)[C@H]3CC[C@]12C [20-Oxo-PE-hGlu, 20-Oxo-pregn-5-en-3β-yl hemiglutarate, reference compound] |  |  |  |  |  |  |  |  |  | solubility thermodynamic at 24 h [2, 7]: 86 ± 1 µM (≈ 37 µg/mL); Stability in rat plasma (% remaining) 8 h ([3]; rat plasma, 37 °C): 44 ± 3 % remaining; Stability in rat plasma (% remaining) 24 h ([3]; rat plasma, 37 °C): 21 ± 1 % remaining
10 | C[C@]12CC[C@H](O)CC1=CC[C@@H]1[C@@H]2CC[C@]2(C)C(=O)CC[C@@H]12 [dehydroepiandrosterone, 3β-hydroxy-androst-5-en-17-one] |  |  |  |  |  |  |  |  |  | Activity at NMDARs [1]: inactive
